Measurements: patent US20170334877A1, “REVAPRAZAN HYDROCHLORIDE POLYMORPHS AND PREPARATION METHOD THEREFOR” (JIANGSU TASLY DIYI PHARMACEUTICAL CO., LTD., priority 2014, published 2017)
Where a name gives a salt, the structure may show the parent alone.

Experiments:
[1] = general statement in background art; cited from earlier work
[2] = Light illumination test (intense light, 4500±500 Lx); assay type: physicochemical; details: for Appearance color / Loss on drying (%) / Purity (%) / Relevant substances: light 4500±500 Lx; for Loss on drying (%) / Purity (%) / Relevant substances: hydrochloride
Source text: Revaprazan hydrochloride crystalline form I is irradiated under such a condition that the light intensity is 4500±500 Lx, and is sampled on the 5th day and 10th day for detection, and the results are shown in Table 1. Revaprazan hydrochloride crystalline form II is irradiated under the condition that the light intensity is 4500±500Lx, and is sampled on the 5th day and 10th day for detection. Revaprazan hydrochloride polymorph III is irradiated under such a condition that the light intensity is 4500±500Lx, and is sampled on the 5th day and 10th day for detection. Revaprazan hydrochloride […] is irradiated under such a condition that the light intensity is 4500±500Lx, and is sampled on the 5th day and the 10th day for detection. Revaprazan hydrochloride crystalline form V is irradiated under the light intensity condition of 4500±500Lx; and is sampled on the 5th day and 10th day for detection.

[3] = High temperature test (60° C. incubator); assay type: physicochemical; details: for Appearance color / Loss on drying (%) / Purity (%) / Relevant substances: 60° C., hydrochloride
Experimental: Revaprazan hydrochloride crystalline form I is placed in a 60° C. incubator, and is sampled on the 5th day and 10th day for detection, and the results are shown in Table 2. Revaprazan hydrochloride crystalline form II is placed in a 60° C. incubator, and is sampled on the 5th day and 10th day for detection, and the results are shown in Table 6. Revaprazan hydrochloride polymorph III is placed in an incubator of 60° C., and is sampled on the 5th day and the 10th day for detection. Revaprazan hydrochloride crystalline form IV is placed in an incubator of 60° C., and is sampled on the 5th day and the 10th day for detection. Revaprazan hydrochloride crystal form 4 is placed in an incubator of 60° C.; and is sampled on the 5th day and the 10th day for detection, and the results are shown in Table 23.

[4] = High humidity test (25° C., relative humidity 75±5%); assay type: physicochemical; details: for Appearance color / Purity (%) / Weight gain upon moisture absorption (%): 25° C., RH 75±5%
Experimental: Revaprazan hydrochloride crystalline form I is placed in an incubator of 25° C. (relative humidity of 75±5%), and is sampled on the 5th day and 10th day for detection. Revaprazan hydrochloride crystalline form II is placed in an incubator of 25° C. (relative humidity of 75±5%), and is sampled on the 5th day and 10th day for detection. Revaprazan hydrochloride polymorph III is placed in an incubator of 25° C. (relative humidity of 75±5%), and is sampled on the 5th day and the 10th day for detection. Revaprazan hydrochloride crystalline form IV is placed in an incubator of 25° C. Revaprazan hydrochloride crystal form 4 is placed in an incubator of 25° C. (the relative humidity is 75±5%), and is sampled on the 5th day and the 10th day for detection.

[5] = Accelerated test (40±2° C., relative humidity 75±5%, 6 months, sealed polyethylene film bag); assay type: physicochemical; details: for Appearance color / Purity (%) / Relevant substances: 40±2° C., RH 75±5%; for Purity (%) / Relevant substances: hydrochloride
Experimental: Revaprazan hydrochloride crystalline form I is sealed in a polyethylene film bag, is placed for 6 months under the conditions that the temperature is 40±2° C. and the relative humidity is 75±5%, and is respectively sampled at the end of the 1st Month, the 2nd Month, the 3rd Month and the 6^thMonth for detection; and the results are shown in Table 4. Revaprazan hydrochloride crystalline form II is sealed in a polyethylene film bag and is placed for 6 months under the conditions that the temperature is 40±2° C. and the relative humidity is 75±5%, and is respectively sampled at the end of the 1st Month, the 2nd Month, the 3rd Month and the 6th Month for detection; and the results are shown in Table 8. Revaprazan hydrochloride crystalline form III is sealed in a polyethylene film bag, is placed for 6 months under the conditions that the temperature is 40±2° C. and the relative humidity is 75±5%, and is sampled at the end of the 1st Month, the 2nd Month, the 3rd Month and the 6th Month for detection. Revaprazan hydrochloride crystalline form IV is sealed in a polyethylene film bag, is placed for 6 months under the conditions that the temperature is 40±2° C. and the relative humidity is 75±5%, and is sampled at the end of the 1st Month, the 2nd Month, the 3rd Month and the 6th Month for detection. Revaprazan hydrochloride crystalline form V is sealed in a polyethylene film bag and is placed for 6 months under the condition that the temperature is 40±2° C. and the relative humidity is 75±5%, and is sampled at the end of the 1st month, the 2nd month, the 3rd month and the 6th month for detection, and the results are shown in Table 20.

Compound: Cc1nc(Nc2ccc(F)cc2)nc(N2CCc3ccccc3C2C)c1C (stereo not drawn) [Revaprazan hydrochloride]
- Time to maximum plasma concentration [1]: about 1 h

Compound: Cc1nc(Nc2ccc(F)cc2)nc(N2CCc3ccccc3C2C)c1C (single isomer, unassigned) [revaprazan hydrochloride crystalline form IV]
- Stability (conclusion in words) ([2]; intense light illumination, no obvious changes in appearance color, loss on drying, purity, relevant substances): stable
- Appearance color ([2]; 5th day): White powder
- Loss on drying (%) ([2]; 5th day): 0.29%
- Purity (%) ([2]; 5th day): 99.95%
- Relevant substances ([2]; 5th day): Undetected
- Appearance color ([2]; 10th day): White powder
- Loss on drying (%) ([2]; 10th day): 0.31%
- Purity (%) ([2]; 10th day): 99.92%
- Relevant substances ([2]; 10th day): Undetected
- Appearance color ([2]; Day 0): White powder
- Loss on drying (%) ([2]; Day 0): 0.27%
- Purity (%) ([2]; Day 0): 99.93%
- Relevant substances ([2]; Day 0): Undetected
- Appearance color ([3]; 5th day): White powder
- Loss on drying (%) ([3]; 5th day): 0.27%
- Purity (%) ([3]; 5th day): 99.91%
- Relevant substances ([3]; 5th day): Undetected
- Appearance color ([3]; 10th day): White powder
- Loss on drying (%) ([3]; 10th day): 0.27%
- Purity (%) ([3]; 10th day): 99.92%
- Relevant substances ([3]; 10th day): Undetected
- Appearance color ([3]; Day 0): White powder
- Loss on drying (%) ([3]; Day 0): 0.25%
- Purity (%) ([3]; Day 0): 99.93%
- Relevant substances ([3]; Day 0): Undetected
- Stability (conclusion in words) ([3]; high temperature, no obvious changes in appearance color, loss on drying, purity, relevant substances): stable
- Appearance color ([4]; 5th day): White powder
- Purity (%) ([4]; 5th day, hydrochloride): 99.96%
- Weight gain upon moisture absorption (%) ([4]; 5th day, hydrochloride): 0.44%
- Appearance color ([4]; 10th day): White powder
- Purity (%) ([4]; 10th day, hydrochloride): 99.93%
- Weight gain upon moisture absorption (%) ([4]; 10th day, hydrochloride): 0.62%
- Appearance color ([4]; Day 0): White powder
- Weight gain upon moisture absorption (%) ([4]; Day 0): 0%
- Purity (%) ([4]; Day 0, hydrochloride): 99.93%
- Weight gain upon moisture absorption (in words) ([4]; high humidity condition): slight weight gain
- Stability (conclusion in words) ([4]; high humidity, no obvious changes in appearance color, purity, relevant substances): stable
- Appearance color ([5]; 1st month): White powder
- Purity (%) ([5]; 1st month): 99.91%
- Relevant substances ([5]; 1st month): Undetected
- Appearance color ([5]; 2nd month): White powder
- Purity (%) ([5]; 2nd month): 99.90%
- Relevant substances ([5]; 2nd month): Undetected
- Appearance color ([5]; 3rd month): White powder
- Purity (%) ([5]; 3rd month): 99.95%
- Relevant substances ([5]; 3rd month): Undetected
- Appearance color ([5]; 6th month): White powder
- Purity (%) ([5]; 6th month): 99.94%
- Relevant substances ([5]; 6th month): Undetected
- Appearance color ([5]; Month 0): White powder
- Purity (%) ([5]; Month 0): 99.93%
- Relevant substances ([5]; Month 0): Undetected
- Stability (conclusion in words) ([5]; accelerated test, no obvious changes in appearance color, purity, relevant substances): stable
